Assay results: patent US20090162459A1, “Combination Therapy for Treatment of Patients with Neurological Disorders and Cerebral Infarction” (priority 2006, published 2009)

Key:
acute ischaemic stroke = details: secondary stroke prevention in cerebral stroke patients, aspirin/other antiplatelets/anticoagulant; cited from earlier work
blood coagulation = experiment: Phase IV open-label study NeuroAid®/aspirin interaction in healthy volunteers, 5 coagulation tests; assay type: in vivo, human; details: 11 healthy volunteers per group
Method: Blood samples of the subjects were collected before they received treatment and 2 and 8 hours after treatment initiation.

Acute Ischemic Stroke = details: cited from earlier work
[1] = clinical stroke trials, versus placebo

Activated Partial Prothrombine Time, Mean (blood coagulation; T + 2 hours)	D-Dimer, Mean (blood coagulation; T + 2 hours)	Fibrinogen, Mean (blood coagulation; T + 2 hours)	Platelet Aggregation, Mean (blood coagulation; T + 2 hours)	D-Dimer, Mean (blood coagulation; T + 8 hours)	Fibrinogen, Mean (blood coagulation; T + 8 hours)	Platelet Aggregation, Mean (blood coagulation; T + 8 hours)	Activated Partial Prothrombine Time, Mean (blood coagulation; T = 0, before treatment)	D-Dimer, Mean (blood coagulation; T = 0, before treatment)	Fibrinogen, Mean (blood coagulation; T = 0, before treatment)	Platelet Aggregation, Mean (blood coagulation; T = 0, before treatment)	Quick Prothrombine Time, Mean (blood coagulation; T = 0, before treatment)	SMILES	improvement effect (acute ischaemic stroke)	cognitive function as measured by the Mini Mental Status Examination (Acute Ischemic Stroke; [1])	functional outcome as measured by the Barthel Index and Rankin scale (Acute Ischemic Stroke; [1])	neurologic evaluation as measured by the NIH stroke scale (Acute Ischemic Stroke; [1])	complete recovery at 3 months (Acute Ischemic Stroke; oral Citicoline, acute ischemic stroke, Davalos et al. 2002)
39.0 s	0.16 µg/mL	3.2 G/L	62.87 Percentage	0.16 µg/mL	3.0 G/L	48.01 Percentage	38.8 s	0.16 µg/mL	3.2 G/L	62.82 Percentage	12.9 s	CC(=O)Oc1ccccc1C(=O)O [Aspirin alone, Acetylsalicylic Acid]	about 1%	–	–	–	–
–	–	–	–	–	–	–	–	–	–	–	–	C[N+](C)(C)CCOP(=O)(O)OP(=O)([O-])OC[C@H]1O[C@@H](n2ccc(N)nc2=O)[C@H](O)[C@@H]1O [Citicoline, CDP-choline]	–	significant difference between the groups, favoring citicoline treatment	significant difference between the groups, favoring citicoline treatment	significant difference between the groups, favoring citicoline treatment	improve complete recovery at 3 months
